From article PMC10458203, “The Amoebicidal Activity of Diferrocenyl Derivatives: A Significant Dependence on the Electronic Environment” (Molecules, 2023)
Where “and” joins values, the source holds several entries; their conditions need not be identical. Identical values can stand only once. Like-named read-outs stand apart in the source and are kept apart here. Marks after values point to notes of the source that are not given here.

Tests used:
[1] = system: trophozoites of Entamoeba histolytica HM1:IMSS strain; assay: Amoebicidal (antiproliferative) activity on trophozoite cultures, viability by trypan blue / CFDA-propidium iodide; assay type: cell-based; details: for increase in the amoebicidal activity: compared with the parent compound 3a
Protocol: Trophozoites of the E. histolytica HM1:IMSS strain were axenically grown by placing 1 × 10^5 live trophozoites in tubes with 3 mL of supplemented TYI-S33 medium. Amoebic trophozoite viability exposed to 1000, 100, 10, 1, 0.1, and 0.01 μM of each experimental compound was determined at 24, 48, and 72 h with trypan blue vital marker and confirmed with the fluorescent dyes carboxyfluorescein diacetate (CFDA) and propidium iodide. Either 100 μL of Trypan blue 0.4% or 1 μL of 5 μM CFDA (Invitrogen Molecular Probes, Inc., Eugene, OR, USA) and 1 μL of 1.5 μM propidium iodide were added to samples of 100 μL containing around 1 × 10^4 treated trophozoites, mixed, and incubated at room temperature for 15 min. The final solutions were mixed and incubated at room temperature for 15 min to perform the counting with an Olympus BX51 fluorescence microscope. The IC50 values were calculated by a multivariable regression using the amoebic viability curves for the tree times evaluated on GraphPad Prism 10.0.

[2] = RP-TLC, methanol/water 80:20; standard deviation in parentheses, three determinations
[3] = design: method as in doi:10.1016/j.jorganchem.2017.05.002; details: cited from earlier work
[4] = cited from earlier work
amoeba trophozoites = system: amoeba trophozoites; design: method as in PMID 27863300; details: cited from earlier work
[5] = Electrochemical measurements (voltammetry) of redox potentials in acetonitrile; assay type: physicochemical; details: TBATFB 0.1 M; for E(I) half-wave redox potential / E(II) half-wave redox potential: vs. Fc/Fc+
Protocol: Two oxidation (Ia, IIa) and two reduction (Ic, IIc) processes with half-wave potential values E(I) = −0.022 V and E(II) = 0.164 V were observed. The electronic communication between both Ferrocene units was evaluated using the ΔE(II–I) to calculate the comproportionation constant (Kcom). According to the Kcom value 1563, the mixed-valence compound is a Class II compound in the Robin–Day classification with slight electronic delocalization between the two redox centers. This slight communication between iron ions allows the identification of two independent and sequential redox processes. It confirms the absence of chemical or adsorption processes associated with redox transformation (Figure 1b). Similar results were found for compound 3e (Table 1). The relationship between redox potential values found for compounds 3a–e follows the equation EII(V) = 1.01EI(V) + 0.1897 (R^2 = 0.9894, F = 280.7, Figure 2a).
Individual diferrocenylvinyloxazolines 3a–e (Figure 6) were isolated using Al2O3 column chromatography (activity grade III, elution with hexane-ether 4:1). In the solid state, fine crystalline substances of orange color represent them. The E and Z […] could be separated by a chromatographic column. In this work, only Z-enantiomers were employed, as described in the compound characterization. The structures of compounds 3a–e were determined based on mass spectrometry, FT-IR, ^1H, and ^13C NMR spectroscopy, and elemental analysis. UV–vis spectra of 3a–e were acquired using acetonitrile solutions at different concentrations in a Genesis 30 Spectrophotometer (Thermo Scientific, Waltham, MA, USA) from 325 to 1100 nm. Electrochemical measurements for compounds 3c and 3e were performed using conditions reported previously. Briefly, acetonitrile solutions at different concentrations of the compound with tetrabutylammonium tetrafluoroborate (TBATFB) 0.1M as a supporting electrolyte, platinum disk as a working electrode, and Ag/AgNO3 as a reference in a potentiostat/galvanostat (EG&G PAR 273). The scan rate was 0.1 V/s, from open circuit potential to positive direction. Bubbling N2 deoxygenated the working solution before each measurement.

[6] = E. histolytica HM1:IMSS trophozoites, viability curves at 24, 48 and 72 h, read-out: IC50
[7] = logarithmic units of IC50 in µM

| Compound | IC50 [1, 6] | −log (1/IC50) [1, 7] | logP [2] | E(I) redox potential ([3]; acetonitrile, vs. Fc/Fc+) | E(II) redox potential ([3]; acetonitrile, vs. Fc/Fc+) | E(I) redox potential [3] | E(II) redox potential [3] | increase in the amoebicidal activity [1] | also measured |
| --- | --- | --- | --- | --- | --- | --- | --- | --- | --- |
| 2-(Z-2,3-diferrocenylvinyl)-4,5-dihydrooxazole [Compound 3a] | 1000 ± 46 µM | 3 | 4.42 (0.2) | 0.116 V and 0.116 ^a V | 0.305 V and 0.305 ^a V | 116 mV | 305 mV |  |  |
| C(=C(/C1=NCCS1)[c-]1cccc1)/[c-]1cccc1.[Fe+2].[Fe+2].c1cc[cH-]c1.c1cc[cH-]c1 [2-(Z-1,2-diferrocenylvinyl)-4,5-dihydro-1,3-thiazole] |  |  |  |  |  |  |  |  | E(I) redox potential [4]: 0.251 V; E(II) redox potential [4]: 0.408 V |
| C(=C(/C1=NCCN1)[c-]1cccc1)/[c-]1cccc1.[Fe+2].[Fe+2].c1cc[cH-]c1.c1cc[cH-]c1 [2-(Z-1,2-diferrocenylvinyl)-imidazoline] |  |  |  |  |  |  |  |  | E(I) redox potential [4]: 0.250 V; E(II) redox potential [4]: 0.437 V |
| COc1cc2c(c(OC)c1OC)CCC1C2=Nc2ccccc2SC1[c-]1cccc1.[Fe+2].c1cc[cH-]c1 (centres unmarked) [(2,3,4-trimethoxy-5,6,6a,7-tetrahydrobenzo[b]naphtho [1,2-e][1,4]thiazepin-7-yl)ferrocene] |  |  |  |  |  |  |  |  | IC50 (amoeba trophozoites): 12.6 µM; redox potential [4]: +0.042 V |
| [Fe+2].c1cc[cH-]c1.c1ccc2c(c1)CCC1C2=Nc2ccccc2SC1[c-]1cccc1 (centres unmarked) [(5,6,6a,7-tetrahydrobenzo[b]naphtho [1,2-e][1,4]thiazepin-7-yl)ferrocene] |  |  |  |  |  |  |  |  | IC50 (amoeba trophozoites): 7.5 µM; redox potential [4]: +0.005 V |
| CC1COC(/C(=C\[c-]2cccc2)[c-]2cccc2)=N1.[Fe+2].[Fe+2].c1cc[cH-]c1.c1cc[cH-]c1 (centres unmarked) [Compound 3b, 2-(Z-1,2-diferrocenylvinyl)-4-methyl-4,5-dihydrooxazole] | 100 ± 9 µM | 2 | 4.76 (0.1) | −0.019 ^a V | 0.182 ^a V | −19 mV | 182 mV | 10 fold |  |
| CC(C)C1COC(/C(=C\[c-]2cccc2)[c-]2cccc2)=N1.[Fe+2].[Fe+2].c1cc[cH-]c1.c1cc[cH-]c1 (centres unmarked) [Compound 3c, 2-(Z-1,2-diferrocenylvinyl)-4-isopropyl-4,5-dihydrooxazole] | 1890 µM |  | 5.48 (0.1) |  |  |  |  |  | E(I) redox potential [5]: −22 mV; E(II) redox potential [5]: 167 mV; E(I) half-wave redox potential [5]: −0.022 V; E(II) half-wave redox potential [5]: 0.167 V |
| C(=C(/C1=NC(c2ccccc2)CO1)[c-]1cccc1)/[c-]1cccc1.[Fe+2].[Fe+2].c1cc[cH-]c1.c1cc[cH-]c1 (centres unmarked) [Compound 3d, 2-(Z-1,2-diferrocenylvinyl)-4-phenyl-4,5-dihydrooxazole] | 23 ± 3 µM | 1.36 | 5.62 (0.2) | −0.045 ^a V | 0.135 ^a V | −45 mV | 135 mV | more than 40 fold |  |
| C(=C(/C1=NC(Cc2ccccc2)CO1)[c-]1cccc1)/[c-]1cccc1.[Fe+2].[Fe+2].c1cc[cH-]c1.c1cc[cH-]c1 (centres unmarked) [Compound 3e, 2-(Z-1,2-diferrocenylvinyl)-4-benzyl-4,5-dihydrooxazole] | 385 ± 11 µM | 2.58 | 6.1 (0.09) |  |  |  |  | 2.5 fold | E(I) redox potential [5]: −65 mV; E(II) redox potential [5]: 124 mV; E(I) half-wave redox potential [5]: −0.065 V; E(II) half-wave redox potential [5]: 0.124 V |
| Cc1ncc([N+](=O)[O-])n1CCO [Metronidazole, reference compound] |  |  |  |  |  |  |  |  | IC50 ([1]; Entamoeba histolytica, E. histolytica HM1:IMSS trophozoites, viability curves at 24, 48 and 72 h, read-out: IC50): 7 ± 0.9 µM; IC50 ([1]; Entamoeba histolytica, logarithmic units of IC50 in µM, read-out: −log (1/IC50) (converted)): 6.92 µM |
